Several values for one entry are separate records, joined by “and”; a condition that tells them apart may be missing. Identical values can stand only once. Entries after “also recorded” stand apart in the source; their conditions may differ. Like-named read-outs stand apart in the source and are kept apart here.
Columns and labels:
[1] = tested on: A375-hS100A4 tumor xenograft (TGase 2 +); assay: Ex vivo biodistribution in tumor-bearing mice (A375-hS100A4); set-up: species or system mice (Rj:NMRI-Foxn1 nu/nu)
Description: (§1) For biodistribution studies in tumor-bearing mice, a number of 5 × 10^6 A375-hS100A4 or MeWo cells were resuspended in 100 µL PBS and injected subcutaneously into nude mice (Rj:NMRI-Foxn1 nu/nu). Tumor growth was monitored three times per week using caliper measurements. The injection of [^18F]7b and subsequent steps were performed as described above.

Liver microsome assay = assay type: in vitro ADME, murine; settings: MLM, without prior oxidation (data not shown)
[2] = Stability in blood in vitro; assay type: in vitro ADME; settings: incubation of the radiotracer in blood in vitro
[3] = set-up: method as in Wodtke et al. [2021]; settings: ref Wodtke et al. [2021]; cited from earlier work
[4] = Ex vivo biodistribution in normal mice; set-up: species or system mice (Rj:NMRI-Foxn1 nu/nu); settings: i.v., control conditions
Description: For biodistribution studies in normal mice, [^18F]7b (0.57 ± 0.03 MBq corresponding to 27 ± 1 pmol in 0.2 mL 0.9% NaCl with a maximum of 10% ethanol (v/v)) was injected i.v. into nude mice (Rj:NMRI-Foxn1 nu/nu, Janvier Laboratories, Le Genest-Saint-Isle, France, body weight 27.7 ± 3.4 g) without (control conditions) or with co-injection of ketoconazole (3 mg/animal). A stock solution of ketoconazole (141 mM) was prepared in ethanol/Tween-80 (1:1, v/v) by shaking over night at 45 °C. This solution was diluted with 0.9% NaCl (1:4, v/v) prior injection. The animals were sacrificed at 5 and 60 min p.i. by CO2 inhalation and cervical dislocation. Organs and tissues of interest were excised, weighed, and radioactivity was determined using the Wizard™3’’ gamma counter. Activity in selected organs and tissues was expressed as % injected dose per weight (% ID/g) or % injected dose (% ID).

[5] = Metabolic stability and arterial blood clearance in a normal Wistar rat; assay type: in vivo; settings: for c02: i.v. 5.27 nmol; for half-life / Vd / clearance / k el: male, iv, 5.27 nmol; for half-life / Vd / clearance: Wistar, rat; for clearance: plasma
Description: The following procedure was performed as recently published (Laube et al. [2020]). For assessing the in vivo stability, [^18F]7b (69.8 MBq corresponding to 5.27 nmol in 0.5 mL 0.9% NaCl with 5% ethanol (v/v)) was injected i.v. into a male Wistar rat (body weight 170 g) under desflurane anesthesia (10% desflurane in 30% oxygen/air, v/v). Using a catheter, blood samples from femoral artery were taken at 1, 3, 5, 10, 20, 30, 60, and 120 min p.i. The resulting loss of volume was compensated by i.v. injection of E153. Plasma was separated by centrifugation (3 min; 13,000 × g) followed by precipitation of plasma proteins with ice-cold Supersol (EtOH 20% (v/v), Triton X-100 0.5% (v/v), EDTA 5 mM, o-Phenanthroline 0.5 mM, Saponin 0.1% (w/v)). Clear supernatant separated by a second centrifugation step (3 min; 13,000 × g) was analyzed by radio-HPLC (Hewlett Packard Series 1100 equipped with a γ-detector (Raytest Ramona), Zorbax SB-C18, 300 Å, 4 μm, 250 × 9.4 mm (Agilent), eluent A, 0.1% (v/v) trifluoroacetic acid in H2O; eluent B, 0.1% (v/v) trifluoroacetic acid in CH3CN). Gradient elution was performed using 95% eluent A for 5 min, 95% eluent A to 95% eluent B in 10 min, 95% eluent B for 5 min, and 95% eluent B to 95% eluent A in 5 min, 3 mL/min, 50 °C. The clear supernatant was also analyzed by radio-TLC using reversed-phase TLC plates (ALUGRAM RP-18W/UV254 from Macherey–Nagel, Düren, Germany) with a mobile phase of 50% CH3CN in water containing 0.1% trifluoroacetic acid. For total protein precipitation at 5 and 60 min p.i., plasma samples were diluted with twice the volume of 15% trichloroacetic acid (TCA) in water instead of Supersol. Clear supernatant was separated by centrifugation (3 min; 13,000 × g) and analyzed as described above.
The measured activity concentrations (decay-corrected) in the blood samples of the Wistar rat were transformed into concentrations of 7b by taking the molar activity of [^18F]7b into account. These values were corrected by the fractions of intact [^18F]7b as analyzed by radio-HPLC or radio-TLC. These corrected concentrations were plotted against the time and analysis was performed by nonlinear regression according to two-phase decay as implemented in GraphPad Prism (Plateau was set to 0, Fig. 3B). However, for derivation of pharmacokinetic parameters, the corrected concentrations were converted to their log values and plotted against the time (semi-logarithmic plot, see inset in Fig. 3B). By linear regression of the data from 3 to 30 min, values for c02 (putative concentration of 7b at the beginning of the elimination phase) and kel (elimination rate constant) were derived. C02 was obtained as antilog of the intercept at the y-axis and kel represents the slope of the line. By knowing these two parameters as well as the applied dose (D = 5.27 nmol), the apparent volume of distribution (VD) and the plasma clearance (CL) was calculated using equations 7 and 8 (Freissmuth et al. [2016]).7 VD=D/c02 8 CL=kβ×VD

[6] = tested on: MeWo tumor xenograft (TGase 2 −); assay: Ex vivo biodistribution in tumor-bearing mice (MeWo); set-up: species or system mice (Rj:NMRI-Foxn1 nu/nu)
Description: as §1

[7] = set-up: method as in Wodtke et al. [2021]; settings: in vitro; ref Wodtke et al. [2021]; cited from earlier work
[8] = whole blood (arterial), radio-HPLC

For `C=CC(=O)NCCCCC(NC(=O)Cc1ccccc1)C(=O)N1CCN(c2cccc([18F])n2)CC1` (stereo not drawn) [[^18F]7b], the tumor/muscle ratio [1] was 1.4, the susceptibility to glucuronidation (Liver microsome assay) was “not susceptible to glucuronidation” and the “[^18F]7b remaining intact” value [2] was ≥ 90%. The logD7.4 [3] was 2.1, the activity uptake kidneys ([4]; 5 min p.i.) was 7.9 %ID/g and the activity uptake liver ([4]; 5 min p.i.) was 15.7 %ID/g. The activity uptake femur ([4]; 60 min p.i.) was 3.9 %ID/g, the “injected activity in intestinal content” value ([4]; 60 min p.i.) was 50 %ID and the “injected activity in urine” value ([4]; 60 min p.i.) was 19 %ID. The “fraction of unmodified [^18F]7b in both blood components” value ([5]; 20 min p.i., plasma and erythrocytes) was > 40%, the “residual intact [^18F]7b in intestinal content” value ([5]; 120 min (2 h) p.i., radio-HPLC) was 7% and the “residual intact [^18F]7b in urine” value ([5]; 120 min (2 h) p.i., radio-HPLC) was 8%. For the same compound, the “binding of ^18F-activity to plasma proteins” value ([5]; ex vivo plasma, protein precipitation) was “not protein-bound; also recorded: quite low”, the c02 ([5]; intact fraction by radio-HPLC) was 22.4 nM and the c02 ([5]; intact fraction by radio-TLC) was 18.4 nM. The “terminal t1/2 (elimination half-life)” value ([5]; i.v., radio-HPLC) was 17 min, the half-life ([5]; arterial blood, i.v., radio-TLC, read-out: terminal t1/2) was 16 min and the Vd ([5]; arterial blood, radio-HPLC) was 0.235 L. The Vd ([5]; arterial blood, radio-TLC) was 0.287 L and 1.69 L/kg, the clearance ([5]; i.v., radio-HPLC data, read-out: plasma clearance (plasma CL)) was 56 mL/min/kg and the clearance ([5]; i.v., radio-HPLC, read-out: Plasma CL) was 9.5 mL/min and 56 mL/min/kg. The clearance ([5]; i.v., radio-TLC, read-out: Plasma CL) was 12.6 mL/min and 74 mL/min/kg, the half-life ([5]; whole blood (arterial), i.v., radio-HPLC, read-out: terminal t1/2 (elimination half-life)) was 17.2 min and the Vd [5, 8] was 1.38 L/kg. For the same compound, the k el ([5]; arterial blood, radio-TLC) was 0.000733 s⁻¹, the k el [5, 8] was 0.000667 s⁻¹ and the “^18F-activity in blood bound to erythrocytes” value ([5]; stable from 10 to 120 min p.i.) was “≈ 30%”. For the same compound, the “^18F-activity in blood located in the plasma fraction” value ([5]; stable from 10 to 120 min p.i.) was “≈ 60%”, the tumor/muscle ratio [6] was 1.0 and the GSH reactivity [7] was “low”.

Source: paper PMC10761660, “Preclinical evaluation of an ^18F-labeled N^ε-acryloyllysine piperazide for covalent targeting of transglutaminase 2” (EJNMMI Radiopharmacy and Chemistry, 2024)
